# Measurements as given in patent US20230000816A1, “SODIUM-GLUCOSE LINKED TRANSPORTER INHIBITORS FOR THE MANAGEMENT OF CHRONIC KIDNEY DISEASE, HYPERTENSION, AND HEART FAILURE IN COMPANION ANIMALS” (INCREVET, INC., priority 2019, published 2023).
# Columns and labels:
# Sprague-Dawley rats = experiment: PPAR-γ agonist (pioglitazone)-mediated fluid retention / plasma expansion model, 7 days, drugs in drinking water; type: in vivo, rat
# Text: It has been recognized in human clinical practice that an undesirable side effect of PPAR-γ agonists of the thiazolidinedione class is fluid retention and edema, which limits their use in patients with congestive heart failure. The mechanism of action of the thiazolidinediones is believed to be through stimulation of expression of the epithelial sodium channel (ENaC) in the kidney, resulting in an increased uptake of sodium ions from the distal tubule. Sodium retention and the associated expansion of extracellular fluid volume are characteristic features of congestive heart failure in multiple species. […] The sodium channel blocker amiloride was delivered in drinking water to a third group of rats as a comparator. Plasma expansion was measured by hematocrit. […] Food weight was recorded to measure consumption over the course of the experiment. […] Full bottles were pre-weighed and the weights recorded to allow consumption to be measured over the course of the experiment. On days 1 and 7, rats were warmed using a heating pad and lightly anesthetized using isoflurane. Using a sterile scalpel blade, a small tail nick was made on the distal one third of the tail. Blood was collected in a heparinized microcapillary tube sealed with putty at one end and stored on ice until centrifugation (5000 rpm, 5 min). Plasma volume was determined using a microhematocrit capillary tube reader card. On day 7, rats, food and water bottles were again weighed and recorded and hematocrits were determined using blood collected by a tail nick.
# [1] = tested on: client-owned dogs with CKD; details: cited from earlier work
# cats with CKD = details: cited from earlier work; for reduction in urinary protein to creatinine ratio: cats, 7, 30, 60, 90, 120 and 180 days
# [2] = tested on: dogs with stage C heart failure; details: cited from earlier work; for median survival: dogs with stage C heart failure, composite primary endpoint
# [3] = tested on: client-owned cats with heart disease; details: 151 client-owned cats with heart disease; cited from earlier work
# [4] = tested on: diabetic subjects with stage A3 albuminuria; details: humans, median 2.62 years; cited from earlier work
# [5] = tested on: human SGLT2 compared to human SGLT1; details: compared with other SGLT inhibitors; cited from earlier work
# [6] = tested on: dogs with stage B heart failure; details: cited from earlier work
# [7] = rats, day 1 to day 7, mean ± SEM
# [8] = rats, pioglitazone diet, mean ± SEM
# [9] = rats, relative to day 1, mean ± SEM
smiles,measurement,setting,value
"N=C(N)NC(=O)c1nc(Cl)c(N)nc1N [Amiloride, reference compound]","Plasma volume, Day 7","Sprague-Dawley rats; rats after 7 days pioglitazone diet, group mean ± SEM",56.6 ± 0.4 % of blood volume
same,"Plasma volume, Day 1","Sprague-Dawley rats; rats on 0.03% pioglitazone diet, by hematocrit, group mean ± SEM",52.7 ± 0.9 % of blood volume
same,Effect on pioglitazone-mediated plasma expansion (conclusion),"Sprague-Dawley rats; rats, 7 days",markedly less effective than bexagliflozin
same,"Body Weight (%), Δ (percent mass gain)",Sprague-Dawley rats; [7],10.8 ± 0.7%
same,"Body Weight (g), Δ",Sprague-Dawley rats; [7],40.0 ± 2.8 g
same,"Plasma volume, Δ (day 1 to day 7)","Sprague-Dawley rats; rats, pioglitazone diet, group mean ± SEM",3.9 ± 0.7 % of blood volume
same,"Body Weight (g), Day 1",Sprague-Dawley rats; [8],370.0 ± 6.0 g
same,"Body Weight (g), Day 7",Sprague-Dawley rats; [8],410.0 ± 7.7 g
same,"Body Weight (%), Day 1",Sprague-Dawley rats; [9],100 ± 0%
same,"Body Weight (%), Day 7",Sprague-Dawley rats; [9],110.8 ± 0.7 %
CCOC(=O)[C@H](CCc1ccccc1)N[C@H]1CCc2ccccc2N(CC(=O)O)C1=O [benazepril],difference in renal survival time vs placebo,[1]; 49 client-owned dogs,significance was not realized
same,proteinuria (urinary protein to creatinine ratio),"[1]; dogs, p=0.0032",significantly improved
same,reduction in urinary protein to creatinine ratio,cats with CKD,not significant
same,median survival,[2],140 days
same,primary endpoint of treatment failure,[3],no benefit
Cc1ccc([C@@H]2O[C@H](CO)[C@@H](O)[C@H](O)[C@H]2O)cc1Cc1ccc(-c2ccc(F)cc2)s1 [canagliflozin],"risk of composite of end-stage kidney disease, doubling of serum creatinine, or renal or cardiovascular death, lower than placebo",[4],30%
CCc1ccc([C@@H]2O[C@H](CO)[C@@H](O)[C@H](O)[C@H]2O)cc1Cc1ccc2c(c1)OCCO2 [licogliflozin],selectivity for human SGLT2 compared to human SGLT1 (in words),[5],lower selectivity
Cc1cc(OCCCNCC(C)(C)C(N)=O)ccc1Cc1c(O[C@@H]2O[C@H](CO)[C@@H](O)[C@H](O)[C@H]2O)n[nH]c1C(C)C [mizagliflozin],selectivity for human SGLT2 compared to human SGLT1 (in words),[5],more active against SGLT1 than SGLT2
COc1ccc(-c2nc3ccc(C4=NNC(=O)CC4C)cc3[nH]2)cc1 (stereo not shown) [pimobendan],median survival,[2],267 days
same,hazard ratio,"[2]; pimobendan vs benazepril, 95% CI 0.516 to 0.916, p=0.0099",0.688
same,median time to the primary endpoint,"[6]; dogs with stage B heart failure, onset of CHF, cardiac-related death, or euthanasia, 95% CI: 856-NA",1228 days
same,hazard ratio,"[6]; pimobendan vs placebo, 95% CI: 0.47-0.87",0.64
CCOc1ccc(Cc2cc([C@@H]3O[C@H](SC)[C@@H](O)[C@H](O)[C@H]3O)ccc2Cl)cc1 [sotagliflozin],selectivity for human SGLT2 compared to human SGLT1 (in words),[5],lower selectivity
CCCc1nc2c(C)cc(-c3nc4ccccc4n3C)cc2n1Cc1ccc(-c2ccccc2C(=O)O)cc1 [telmisartan],comparison with benazepril,cats with CKD; cats with CKD,noninferior to benazepril
same,reduction in urinary protein to creatinine ratio,cats with CKD,significant at all time points
